# Reference: patent US10577362B2, “Substituted 2, 4-diamino-quinoline derivatives for use in the treatment of proliferative diseases” (GENOSCIENCE PHARMA, priority 2016, dated 2020)
# Assays:
# [1] = system: A375 (malignant melanoma) cell line; test: CellTiter-Glo luminescent cell viability assay, A375; format: cell-based, human; conditions: Homo sapiens, A-375; for viability at 4 µM: A375, compound at 4 μM; for viability at 4 µM / viability at 10 µM: 72 h; for viability at 10 µM: A375, compound at 10 μM; for EC50: A375 cell line, 72 h incubation, CellTiter-Glo, read-out: EC50, growth inhibition of A375
# Method in brief: (§1)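 Cells were cultured at 37 °C, 5% CO2 with 10% FBS; adherent lines were plated overnight, suspension MOLM-14 plated 1 h before dosing. Compounds in H2O or DMSO were added at various concentrations for 72 h, and viability was read by luminescence. EC50 is the dose reducing signal to 50% of diluent control.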
# [2] = system: Huh7 (hepatocellular carcinoma) cell line; test: CellTiter-Glo luminescent cell viability assay, Huh7; format: cell-based, human; conditions: Homo sapiens, Huh-7; for viability at 4 µM: Huh7, compound at 4 μM; for viability at 4 µM / viability at 10 µM: 72 h; for viability at 10 µM: Huh7, compound at 10 μM; for EC50: Huh7 cell line, 72 h incubation, CellTiter-Glo, read-out: EC50, growth inhibition of Huh7
# Method in brief: (§2)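 EC50 is the concentration cutting CellTiter-Glo luminescence to half that of H2O- or DMSO-treated controls after 72 h compound exposure, with each point in at least duplicate. HepG2, Huh7 and PANC-1 were seeded the night before; MOLM-14 1 h prior; all cultured with 10% FBS, 37 °C, 5% CO2.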
# [3] = system: HCT-116 (colorectal carcinoma) cell line; test: CellTiter-Glo luminescent cell viability assay, HCT-116; format: cell-based, human; conditions: Homo sapiens; for viability at 4 µM: HCT-116, compound at 4 μM; for viability at 4 µM / viability at 10 µM: 72 h; for viability at 10 µM: HCT-116, compound at 10 μM; for EC50: HCT-116 cell line, 72 h incubation, CellTiter-Glo, read-out: EC50, growth inhibition of HCT-116
# Method in brief: as §1
# [4] = system: HepG2 (hepatocellular carcinoma) cell line; test: CellTiter-Glo luminescent cell viability assay, HepG2; format: cell-based, human; conditions: Homo sapiens; for viability at 4 µM / viability at 10 µM: HepG2, HepG, 72 h; for viability at 4 µM: compound at 4 μM; for viability at 10 µM: compound at 10 μM; for EC50: HepG2 cell line, 72 h incubation, CellTiter-Glo, read-out: EC50, growth inhibition of HepG2
# Method in brief: as §2
# [5] = system: PANC-1 (prancreatic carcinoma) cell line; test: CellTiter-Glo luminescent cell viability assay, PANC-1; format: cell-based; conditions: Homo sapiens; for viability at 4 µM: PANC-1, 4 μM; for viability at 4 µM / viability at 10 µM: 72 h, % of signal of diluent-treated cultures; for viability at 10 µM: PANC-1, 10 μM; for EC50: PANC-1 cell line, 72 h incubation, CellTiter-Glo, read-out: EC50 (growth inhibition assay of PANC-1 cell line)
# Method in brief: as §2
# [6] = system: MOLM-14 (acute myeloid leukemia) cell line; test: CellTiter-Glo luminescent cell viability assay, MOLM-14; format: cell-based, human; conditions: Homo sapiens; for viability at 4 µM: MOLM-14, compound at 4 μM; for viability at 4 µM / viability at 10 µM: 72 h; for viability at 10 µM: MOLM-14, compound at 10 μM; for EC50: MOLM-14 cell line, 72 h incubation, CellTiter-Glo, read-out: EC50, growth inhibition of MOLM-14
# Method in brief: as §2
# [7] = system: 786-O (renal adenocarcinoma) cell line; test: CellTiter-Glo luminescent cell viability assay, 786-O; format: cell-based, human; conditions: Homo sapiens, 786-0; for viability at 4 µM / viability at 10 µM: 786-O, 72 h; for viability at 4 µM: compound at 4 μM; for viability at 10 µM: compound at 10 μM; for EC50: 786-O cell line, 72 h incubation, CellTiter-Glo, read-out: EC50, growth inhibition of 786-O
# Method in brief: as §1
EC50 [1] [µM],EC50 [2] [µM],EC50 [3] [µM],EC50 [4] [µM],EC50 [6] [µM],EC50 [7] [µM],Compound,viability at 4 µM [1] [%],viability at 10 µM [1] [%],viability at 4 µM [2] [%],viability at 10 µM [2] [%],viability at 4 µM [3] [%],viability at 10 µM [3] [%],viability at 4 µM [4] [%],viability at 10 µM [4] [%],viability at 4 µM [5] [%],viability at 10 µM [5] [%],viability at 4 µM [6] [%],viability at 10 µM [6] [%],viability at 4 µM [7] [%],viability at 10 µM [7] [%],further results
5 to 10,5 to 10,5 to 10,5 to 10,5 to 10,5 to 10,"CC(C)(C)NC1CCN(c2c(F)c(NCc3ccc(F)cc3)nc3ccccc23)CC1 [Compound 240F, 2-(4-fluorobenzylamino)-3-fluoro-4-[4-(tert-butylamino)piperidin-1-yl]quinoline]",73.6,0.2,70.5,2.5,49.6,0.2,46.1,0.1,96.5,59.5,83.4,50.8,94.7,28.7,EC50 [5]: 5 to 10 µM
0.5 to 5,5 to 10,0.5 to 5,0.5 to 5,5 to 10,0.5 to 5,"CC(C)(C)NC1CCN(c2c(C#N)c(Nc3ccc(F)cc3)nc3ccccc23)CC1 [Compound 3260CN, 2-(4-fluorophenylamino)-3-cyano-4-[4-(tert-butylamino)piperidin-1-yl]quinoline]",2.2,0.4,50.7,0.7,1.2,0.3,49.1,0.4,84.1,39.1,86.7,0.9,17.5,0.3,EC50 [5]: 5 to 10 µM
0.5 to 5,5 to 10,0.5 to 5,5 to 10,5 to 10,5 to 10,"CC(C)(C)NC1CCN(c2c(C#N)c(NCc3ccc4c(c3)OCO4)nc3ccccc23)CC1 [Compound 3300CN, 2-[(benzo[d][1,3]dioxol-5-ylmethyl)amino]-3-cyano-4-[4-(tert-butylamino)piperidin-1-yl]quinoline]",47.2,0.4,63.2,0.5,13.9,0.2,62.7,0.5,78,27.4,70.2,0.5,60,0.8,EC50 [5]: 5 to 10 µM

# Second part, the compound before the results:
Compound,EC50 [1] [µM],EC50 [2] [µM],EC50 [3] [µM],EC50 [4] [µM],EC50 [6] [µM],EC50 [7] [µM],viability at 4 µM [1] [%],viability at 10 µM [1] [%],viability at 4 µM [2] [%],viability at 10 µM [2] [%],viability at 4 µM [3] [%],viability at 10 µM [3] [%],viability at 4 µM [4] [%],viability at 10 µM [4] [%],viability at 4 µM [5] [%],viability at 10 µM [5] [%],viability at 4 µM [6] [%],viability at 10 µM [6] [%],viability at 4 µM [7] [%],viability at 10 µM [7] [%],further results
"N#Cc1c(NCc2ccc(Cl)cc2)nc2ccccc2c1N1CCC(N2CCOCC2)C1 (stereo not shown) [Compound 150CN, 2-(4-chloro-benzylamino)-3-cyano-4-(3-morpholino-pyrrolidin-1-yl)quinoline]",–,–,–,–,–,–,97.9,96.8,93.8,90.4,99.5,95.1,100,103,101,101,109,114,96.1,91.4,–
"Cc1ccc2nc(NCc3ccc(Cl)cc3)c(C#N)c(N3CCC(NC(C)(C)C)CC3)c2c1 [Compound 418CN, 2-(4-chlorobenzylamino)-3-cyano-4-[4-(tert-butylamino)piperidin-1-yl]-6-methylquinoline]",0.5 to 5,0.5 to 5,0.5 to 5,0.5 to 5,0.5 to 5,0.5 to 5,0.3,0.3,50.5,0.3,0.2,0.2,5,0.2,79.8,0.4,3.8,0.3,0.9,0.2,EC50 [5]: 5 to 10 µM
"CN1CCC(NC2CCN(c3c(C#N)c(NCc4ccc(Cl)cc4)nc4ccccc34)CC2)CC1 [Compound 3182CN, 2-(4-chlorobenzylamino)-3-cyano-4-{4-[(1-methylpiperidin-4-yl)amino]piperidin-1-yl}quinoline]",0.5 to 5,0.5 to 5,0.5 to 5,0.5 to 5,0.5 to 5,0.05 to 0.5,0.5,0.4,0.6,0.4,0.5,0.3,0.5,0.3,0.8,0.5,0.6,0.4,0.6,0.4,–
